Assay results taken from patent US20100298256A1, “ANTIVIRAL COMPOUNDS” (priority 2007, published 2010).

Legend:
AVA5 and APC103 cultures = assay: Cytotoxicity by neutral red dye uptake in the HCV replicon cultures; format: cell-based; conditions: at the concentrations used for the antiviral analyses
Method: (§1) Antiviral activity of the test compounds was assessed (Okuse et al., 2005, Antivir. Res. 65:23) in the stably HCV replicating line, AVA5 (genotype 1b, subgenomic, replicon, Blight et al., 2000, Sci. 290: 1972) and APC 103 ((genotype 1a, genomic replicon). (ODE) phosphodiester ribavirin prodrug were added to dividing cultures daily for three days. Cultures generally start the assay at 30-50% confluence and reach confluence during the last day of treatment. Intracellular HCV RNA levels and cytotoxicity (on 96 well plates) were used. A total of 12 untreated control cultures and triplicate cultures treated with α-interferon and 2′CmeC served as assay controls.
(§2) Triplicate cultures for HCV RNA levels were measured using a conventional blot hybridization method in which HCV RNA levels were normalized to the levels of β-actin RNA in each individual culture (Okuse et al., 2005, Antivir. Res. 65:23). Cytotoxicity was measured using an established neutral red dye uptake assay (Korba et al., 1992, Antivir. Res. 19:55, Okuse et al., Antivir. Res. 65:23). Test compounds were received as powders on dry ice and were dissolved in 100% tissue culture grade DMSO (Sigma, Inc.) at 10 mM. Aliquots of test compounds sufficient for one daily treatment were made in individual tubes and all material was stored at −20° C. […]

[1] = Pharmacokinetic study after single oral and intravenous administration in male CD-1 mice
Method: (§4) Plasma samples were collected at pre-dose, 1, 3, 6, 12, 24, 48, and 72 hours post-dose for P.O. treatment group and at pre-dose, 0.25, 2, 6, 12, 24, 48, and 72 hours post-dose for I.V. treatment group. All samples were collected within ±2 minutes of the targeted time.
(§5) Phenolphthalein was used as an internal standard. […] The samples were mixed by vortexing for 5 minutes, and centrifuged at 15,000 rpm at 4° C. for 10 minutes. A 150-μL aliquot of the supernatant was transferred to a 96-well plate and 10 uL of supernatant sample was injected into the LC-MS/MS system for analysis. In each analytical batch, PK samples were run concurrently with calibration standards (blank, 0, 5, 10, 25, 50, 100, 150, 300, and 500 ng/mL), and low, mid, high, and 10-fold dilution QC samples (15, 250, 400, and 2000 ng/m L).
A 1/Y^2 weighting factor was used.

[2] = CytoTox-ONE LDH release cytotoxicity assay, HepG2; format: cell-based; conditions: human, HepG2 cells, read-out: TC50 (toxic concentration decreasing cell viability by 50%)
Method: (§3) CytoTox-ONE™ homogeneous membrane integrity assay kits (Promega) was used in the cytotoxicity studies. The assay measured the release of lactate dehyrodegenase (LDH) from cells with damaged membranes in a fluorometric, homogeneous format. […] The amount of fluorescence produced is proportional to the number of lysed cells. The cytotoxicity assessment assay was performed using a designed plate format […] for allocation of media, drug, cells, and virus in a 96 well plate. Six serially diluted concentrations of octadecyl-ethanediol-modified (ODE) phosphodiester Ribavirin prodrug was applied to the cells to derive the TC50 (toxic concentration of the drug decreasing the cell viability by 50%), TC90 (toxic concentration of the drug decreasing the cell viability by 90%) and TC95 (toxic concentration of the drug decreasing the cell viability by 95%) values.

HepG2 cells = assay: CytoTox-ONE LDH release cytotoxicity assay, HepG2; format: cell-based
Method: as §3

influenza A [3] = assay: microbe, parasite or virus in culture; conditions: MDCK, read-out: IC50 (minimum inhibitory drug concentration which reduces the CPE by 50%)
PBMC cells = assay: CytoTox-ONE LDH release cytotoxicity assay, PBMC; format: cell-based
Method: as §3

[4] = CytoTox-ONE LDH release cytotoxicity assay, PBMC; format: cell-based; conditions: PBMC cells, read-out: TC50 (toxic concentration decreasing cell viability by 50%)
Method: as §3

[5] = tested on: HCV replicon APC103 (genotype 1a, genomic replicon); assay: HCV replication in cell culture, APC103 replicon line (blot hybridization of HCV RNA); format: cell-based; conditions: APC103 cultures, daily treatment for three days, normalized to β-actin RNA
Method: as §1, §2

[6] = tested on: HCV replicon AVA5 (genotype 1b, subgenomic replicon); assay: HCV replication in cell culture, AVA5 replicon line (blot hybridization of HCV RNA); format: cell-based; conditions: AVA5 cultures, daily treatment for three days, normalized to β-actin RNA
Method: as §1, §2

in vitro = conditions: dog
CEM cells = assay: CytoTox-ONE LDH release cytotoxicity assay, CEM; format: cell-based
Method: as §3

[7] = CytoTox-ONE LDH release cytotoxicity assay, CEM; format: cell-based; conditions: human, CEM cells, read-out: TC50 (toxic concentration decreasing cell viability by 50%)
Method: as §3

influenza A [8] = tested on: influenza A
in vivo = conditions: male, CD-1, mouse, plasma
Method: as §4, §5
A 1/Y^2 weighting factor was used.

For NC(=O)c1ncn([C@@H]2O[C@H](CO)[C@@H](O)[C@H]2O)n1 [ribavirin, reference compound], the “toxicity (significant = greater than 50% depression of the dye uptake levels observed in untreated cells)” value (AVA5 and APC103 cultures) was “Significant toxicity”.

In the case of CCCCCCCCCCCCCCCCCCOCCOP(=O)(O)OC[C@H]1O[C@@H](n2cnc(C(N)=O)n2)[C@H](O)[C@@H]1O [(ODE) phosphodiester ribavirin prodrug, 1-(5-O-{hydroxy[2-(octadecyloxy)ethoxy]phosphoryl}-beta-D-ribofuranosyl)-1H-1,2,4-triazole-3-carboxamide], the “plasma levels (below LLOQ)” value ([1]; IV 5 mg/kg, from 12 hours to 72 hours post-dose) is reported as under 5 ng/mL, the “plasma levels (below LLOQ)” value ([1]; PO 30 mg/kg, from 24 hours to 72 hours post-dose) is reported as under 5 ng/mL and the CC50 [2] is reported as 13.2 µM. For the same compound, the “TC90 (toxic concentration decreasing cell viability by 90%)” value (HepG2 cells) was 28.32 µM, the “TC95 (toxic concentration decreasing cell viability by 95%)” value (HepG2 cells) was 41.69 µM and the IC50 (influenza A [3]) was under 0.316 µM. The “TC90 (toxic concentration decreasing cell viability by 90%)” value (PBMC cells) was 245 µM, the “TC95 (toxic concentration decreasing cell viability by 95%)” value (PBMC cells) was 272 µM and the CC50 [4] was 111 µM. The “intracellular HCV RNA levels” value [5] was “selective reductions in intracellular HCV RNA levels”, the “toxicity (significant = greater than 50% depression of the dye uptake levels observed in untreated cells)” value (AVA5 and APC103 cultures) was “No significant toxicity” and the “intracellular HCV RNA levels” value [6] was “selective reductions in intracellular HCV RNA levels”. The CC50 (in vitro) was 66.4 µM, the “TC90 (toxic concentration decreasing cell viability by 90%)” value (CEM cells) was 63.41 µM and the “TC95 (toxic concentration decreasing cell viability by 95%)” value (CEM cells) was 84.55 µM. For the same compound, the CC50 [7] was 14.1 µM, the “therapeutic index (TI50 = TC50 / IC50)” value (influenza A [8]) was “greater than 210” and the AUC(0-inf) (in vivo; iv, 5 mg/kg) was 2660 ng·h/mL. It also gave an AUC(0-t) (in vivo; iv, 5 mg/kg) of 2640 ng·h/mL, a Cmax (in vivo; iv, 5 mg/kg) of 1960 ng/mL and a Tmax (in vivo; iv, 5 mg/kg) of 0.25 h. For the same compound, the clearance (in vivo; iv, 5 mg/kg) was 31.3 mL/min/kg, the half-life (in vivo; iv, 5 mg/kg) was 1.13 h and the bioavailability (in vivo; oral, 30 mg/kg) was 10.7%. For the same compound, the AUC(0-inf) (in vivo; po, 30 mg/kg) was 1700 ng·h/mL, the AUC(0-t) (in vivo; po, 30 mg/kg) was 1660 ng·h/mL and the Cmax (in vivo; po, 30 mg/kg) was 407 ng/mL. It also gave a Tmax (in vivo; po, 30 mg/kg) of 3 h.
